Test results reported in patent publication US20250041209A1, “THERMOSENSITIVE MODIFIED CHITIN SPONGE DRUG-LOADED IMPLANTED SUSTAINED-RELEASE SYSTEM, PREPARATION METHOD THEREFORE, AND USE THEREOF” (priority 2022, published 2025).
Counter-ions that a name gives are not always drawn.

System: cutaneous trunci muscle reflex
Assay: guinea pig pin-prick assay, local anesthetic efficacy of subcutaneously implanted sponges
Format: in vivo
Conditions: subcutaneous implant (sponge about 0.5 g) or 0.5 mL solution injected, n=6
Excerpt: To evaluate in vivo the local anesthetic efficacy of the drug-loaded implanted thermosensitive hydroxypropyl chitin sponges prepared in Example 1, guinea pig pin-prick assay was employed in this invention. Guinea pigs (around 300 g) were induced and maintained with isoflurane. Then the left backs of guinea pigs were shaved before treatment. One longitudinal skin incision with 1.5 cm in length was made by a scalpel at 2 cm left of ridge midline on the back of the guinea pig. Subsequently, one cuboid sponge about 0.5 g (1 cm×1 cm×0.5 cm) was put right in the middle of the incision below the skin. The incision was finally stitched up. 36 animals were randomly divided into six experimental groups with each of 6: group 1: BPV-loaded 0.8B %-HPCH (3.6 wt %) sponge, group 2: 0.8B %-collagen/HPCH (0.6/3.0 wt %) sponge, group 3: 1.2B %-HPCH (3.6 wt %) sponge, group 4: 2.4B %-HPCH (3.6 wt %) sponge, 0.8%-BPV group 5 (0.8 wt % BPV solution) and sham-operated group 6. As for sham-operated group, the incision was made and stitched up without placing a sponge. For BPV solution group, a volume of 0.5 mL 0.8% BPV solution was injected subcutaneously near the skin incision using 30-gage hypodermic needle. […] The nociceptive blockade score (N %) was calculated as following equation: N %=n/8×100%. […]

## CCCCN1CCCCC1C(=O)Nc1c(C)cccc1C (stereo not shown) [0.8%-BPV, bupivacaine hydrochloride]
  effective duration of blockade (time with nociceptive blockade score≥50%): 1 h
